Measured values from patent US20180338980A1, “AROMATIC SULFONAMIDE DERIVATIVES” (BAYER PHARMA AKTIENGESELLSCHAFT, priority 2015, published 2018).

Target: T1, P2X4 (Homo sapiens, UniProt Q99571)
T1 sequence (Q99571 1-388): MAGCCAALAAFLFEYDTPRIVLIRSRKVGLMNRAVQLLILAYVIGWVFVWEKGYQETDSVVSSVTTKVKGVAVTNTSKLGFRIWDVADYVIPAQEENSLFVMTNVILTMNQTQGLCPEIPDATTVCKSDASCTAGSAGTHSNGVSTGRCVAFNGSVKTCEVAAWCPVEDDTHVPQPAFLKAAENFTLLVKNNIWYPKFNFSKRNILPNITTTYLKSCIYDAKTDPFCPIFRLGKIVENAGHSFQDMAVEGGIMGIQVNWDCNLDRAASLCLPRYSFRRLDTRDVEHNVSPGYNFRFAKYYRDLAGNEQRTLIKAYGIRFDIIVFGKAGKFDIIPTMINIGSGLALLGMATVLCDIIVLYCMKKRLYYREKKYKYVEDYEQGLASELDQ
Experiment: Assay B: human P2X4 receptor cell line, mitochondrial photina luminescence (agonist Bz-ATP at EC50)
Type: cell-based
Set-up: host or cells: HEK 293 (recombinant, constitutively expressing; with mitochondrial photina in Assay B)
Conditions: HEK human P2X4 cell line, photina luminescence, agonist Bz-ATP at EC50, average; for Emax: read-out: human P2X4 Assay B avg Efficacy
Procedure: The identification of agonists and antagonists of the P2X4 receptor from humans and […] also the quantification of the activity of the compounds of the invention was performed by use of recombinant cell lines. […] The test cell lines constitutively express the mouse or human P2X4 receptors. Stimulation of the receptors with an agonist leads to a conformational change of P2X4 and influx of extracellular calcium ions through the ion channel. The cytoplasmatic calcium transient is detected via the calcium sensitive dye Fluo8 for the mouse P2×4 cell line or in case of the human P2×4 cell line a stably expressed calcium-sensitive photoprotein, mitochondrial photina, which, after reconstitution with the cofactor coelenterazine, emits light in dependence of calcium binding [Bovolenta S, Foti M, Lohmer S, Corazza S., J Biomol Screen. […] The strength of Fluo8 fluorescence signal or photina luminescence signal corresponds to the level of receptor activation. An inhibitor would decrease the signal depending on its potency and concentration.
The resulting light signal is measured immediately in the luminometer.

SMILES | IC50 [µM] | Emax [%]
NS(=O)(=O)c1cc(NC(=O)Cc2c(Cl)ccc(Cl)c2Cl)ccc1Oc1cccc(Cl)c1 [Example 125, N-[4-(3-Chlorophenoxy)-3-sulfamoylphenyl]-2-(2,3,6-trichlorophenyl)acetamide] | 0.506 | 97
Cc1ccncc1CC(=O)Nc1ccc(Oc2cccc(Cl)c2)c(S(N)(=O)=O)c1 [Example 092, N-[4-(3-Chlorophenoxy)-3-sulfamoylphenyl]-2-(4-methylpyridin-3-yl)acetamide] | 3.44 | 57
NS(=O)(=O)c1cc(NC(=O)Cc2ccccc2Cl)ccc1OCC1COC1 [Example 159, 2-(2-Chlorophenyl)-N-[4-(oxetan-3-ylmethoxy)-3-sulfamoylphenyl]acetamide] | 1.18 | 91
NS(=O)(=O)c1cc(NC(=O)Cc2cc(C(F)(F)F)ccc2Cl)ccc1Oc1cccc(Cl)c1 [Example 109, N-[4-(3-Chlorophenoxy)-3-sulfamoylphenyl]-2-[2-chloro-5-(trifluoromethyl)phenyl]acetamide] | 0.825 | 56
Cc1cc(CC(=O)Nc2ccc(Oc3cccc(Cl)c3)c(S(N)(=O)=O)c2)c(Cl)cc1Br [Example 118, 2-(4-Bromo-2-chloro-5-methylphenyl)-N-[4-(3-chlorophenoxy)-3-sulfamoylphenyl]acetamide] | 1.89 | 61
NS(=O)(=O)c1cc(NC(=O)Cc2ccc(F)cc2)ccc1Oc1ccc(Cl)cc1 [Example 223, N-[4-(4-Chlorophenoxy)-3-sulfamoylphenyl]-2-(4-fluorophenyl)acetamide] | 1.85 | 82
N#Cc1ccccc1CC(=O)Nc1ccc(Oc2cccc(Cl)c2)c(S(N)(=O)=O)c1 [Example 225, N-[4-(3-Chlorophenoxy)-3-sulfamoylphenyl]-2-(2-cyanophenyl)acetamide] | 0.192 | 98
COc1ccc(CC(=O)Nc2ccc(Oc3cccc(Cl)c3)c(S(N)(=O)=O)c2)cc1 [Example 190, N-[4-(3-Chlorophenoxy)-3-sulfamoylphenyl]-2-(4-methoxyphenyl)acetamide] | 0.171 | 65
NS(=O)(=O)c1cc(NC(=O)C(F)(F)c2ccccc2)ccc1Oc1cccc(Cl)c1 [Example 106, N-[4-(3-Chlorophenoxy)-3-sulfamoylphenyl]-2,2-difluoro-2-phenylacetamide] | 0.524 | 42
NS(=O)(=O)c1cc(NC(=O)Cc2c(Cl)cccc2C(F)(F)F)ccc1Oc1cccc(Cl)c1 [Example 108, N-[4-(3-Chlorophenoxy)-3-sulfamoylphenyl]-2-[2-chloro-6-(trifluoromethyl)phenyl]acetamide] | 0.175 | 60
Cc1nc(C2CC2)ncc1Oc1ccc(NC(=O)Cc2ccccc2Cl)cc1S(N)(=O)=O [Example 058, 2-(2-Chlorophenyl)-N-{4-[(2-cyclopropyl-4-methylpyrimidin-5-yl)oxy]-3-sulfamoylphenyl}acetamide] | 3.18 | 73
NS(=O)(=O)c1cc(NC(=O)Cc2ccccc2Cl)ccc1Oc1cc(Cl)cnc1Cl [Example 035, 2-(2-Chlorophenyl)-N-{4-[(2,5-dichloropyridin-3-yl)oxy]-3-sulfamoylphenyl}acetamide] | 3.57 | 60
N#Cc1ccc(Oc2ccc(NC(=O)Cc3ccccc3Cl)cc2S(N)(=O)=O)cc1 [Example 030, 2-(2-Chlorophenyl)-N-[(4-cyanophenoxy)-3-sulfamoylphenyl]acetamide] | 5.08 | 99
NS(=O)(=O)c1cc(NC(=O)Cc2ccccc2Cl)ccc1OCc1ccncn1 [Example 153, 2-(2-Chlorophenyl)-N-[4-(pyrimidin-4-ylmethoxy)-3-sulfamoylphenyl]acetamide] | 0.327 | 93
COCCNC(=O)c1cccc(CC(=O)Nc2ccc(Oc3cccc(Cl)c3)c(S(N)(=O)=O)c2)c1 [Example 201, 3-(2-{[4-(3-Chlorophenoxy)-3-sulfamoylphenyl]amino}-2-oxoethyl)-N-(2-methoxyethyl)benzamide] | 3.3 | 73
NS(=O)(=O)c1cc(NC(=O)Cc2ccccc2Cl)ccc1Oc1cnc(C(F)(F)F)nc1 [Example 056, 2-(2-Chlorophenyl)-N-(3-sulfamoyl-4-{[2-(trifluoromethyl)pyrimidin-5-yl]oxy}phenyl)acetamide] | > 50 | 15
NS(=O)(=O)c1cc(NC(=O)Cc2ccccc2)cc(F)c1Oc1cccc(Cl)c1 [Example 170, N-[4-(3-Chlorophenoxy)-3-fluoro-5-sulfamoylphenyl]-2-phenylacetamide] | > 16 | 36
Cc1cccc(CC(=O)Nc2cc(F)c(Oc3cccc(Cl)c3)c(S(N)(=O)=O)c2)c1 [Example 172, N-[4-(3-Chlorophenoxy)-3-fluoro-5-sulfamoylphenyl]-2-(3-methylphenyl)acetamide] | 3.24 | 63
NS(=O)(=O)c1cc(NC(=O)Cc2ccccc2)ccc1OCC1CC1 [Example 245, N-[4-(Cyclopropylmethoxy)-3-sulfamoylphenyl]-2-phenylacetamide] | 5.97 | 68
NS(=O)(=O)c1cc(NC(=O)C(F)(F)c2ccccc2Cl)ccc1Oc1cccc(Cl)c1 [Example 094, N-[4-(3-Chlorophenoxy)-3-sulfamoylphenyl]-2-(2-chlorophenyl)-2,2-difluoroacetamide] | 0.2 | 74
N#Cc1ccccc1COc1ccc(NC(=O)Cc2ccccc2Cl)cc1S(N)(=O)=O [Example 145, 2-(2-Chlorophenyl)-N-{4-[(2-cyanobenzyl)oxy]-3-sulfamoylphenyl}acetamide] | 0.194 | 72
COCCOc1ccccc1CC(=O)Nc1ccc(Oc2cccc(Cl)c2)c(S(N)(=O)=O)c1 [Example 211, N-[4-(3-Chlorophenoxy)-3-sulfamoylphenyl]-2-[2-(2-methoxyethoxy)phenyl]acetamide] | 0.404 | 102
Cc1cccc(CC(=O)Nc2ccc(Oc3cccc(Cl)c3)c(S(N)(=O)=O)c2)n1 [Example 189, N-[4-(3-Chlorophenoxy)-3-sulfamoylphenyl]-2-(6-methylpyridin-2-yl)acetamide] | 0.429 | 54
COc1ccccc1Oc1ccc(NC(=O)Cc2ccc(C(F)(F)F)cc2)cc1S(N)(=O)=O [Example 071, N-[4-(2-Methoxyphenoxy)-3-sulfamoylphenyl]-2-[4-(trifluoromethyl)phenyl]acetamide] | 2.09 | 73
NS(=O)(=O)c1cc(NC(=O)Cc2cccc(F)c2)ccc1Oc1cccc(Cl)c1 [Example 084, N-[4-(3-Chlorophenoxy)-3-sulfamoylphenyl]-2-(3-fluorophenyl)acetamide] | 0.213 | 57
NS(=O)(=O)c1cc(NC(=O)Cc2ncccc2Cl)ccc1Oc1cccc(Cl)c1 [Example 112, N-[4-(3-Chlorophenoxy)-3-sulfamoylphenyl]-2-(3-chloropyridin-2-yl)acetamide] | 0.289 | 60
CC(C(=O)Nc1ccc(Oc2cccc(Cl)c2)c(S(N)(=O)=O)c1)c1ccccc1 (centres unmarked) [Example 184, N-[4-(3-Chlorophenoxy)-3-sulfamoylphenyl]-2-phenylpropanamide] |  | 53
